Source: patent US11865158B2, “Process and composition matter of nanoparticle formulation for systemic treatment of sepsis” (PURDUE RESEARCH FOUNDATION, priority 2019, dated 2024)

Tests used:
[1] = tested on: LPS-induced NF-kB/AP-1 activation in THP1-XBlue-MD2-CD14 cells; assay: In vitro anti-LPS activity, SEAP reporter assay, LPS pretreated and supernatant added to cells; type: cell-based, human; conditions: 10 ng/mL LPS, equivalent to PMB 9.5-18.9 μg/mL
Protocol: To investigate if D-TZP can neutralize LPS, a reporter cell line responding to LPS was incubated with LPS and free PMB or D-TZP's (with different amounts of PMB). THP1-XBlue-MD2-CD14, derived from the human monocytic THP-1 cell line, overexpresses MD2 and CD14 to amplify the response to TLR4 agonist LPS. Color change of the Quanti-Blue reagent (NF-kB/AP-1-inducible secreted embryonic alkaline phosphatase (SEAP) reporter protein) reflects NF-kB/AP-1 activation due to LPS. LPS-induced SEAP production was measured at 620 nm. The reporter cells with 10 ng/mL of LPS expressed a high level of SEAP as compared to non-challenged cells. […] A supernatant was obtained from each mixture to separate unbound LPS and added to THP1-XBlue-MD2-CD14 cells.
In vitro anti-LPS activity. Five microliters of LPS ([…]) was mixed with 15 μL of free PMB, D-TZP, or TZP at different concentrations in a flat-bottom 96-well plate. THP1-XBlue-MD2-CD14 cell suspension (10^5 cells in 180 μL) was then added to the mixtures. After 24 h incubation, cells were centrifugated at 233 rcf for 5 min. Twenty microliters of the cell medium was mixed with the Quanti-Blue reagent. After 2 h incubation, the color was measured at 620 nm by a Spectra Max M3 microplate reader (Molecular Devices, Sunnyvale, CA). […] The medium was analyzed in the same manner as above.

[2] = tested on: Klebsiella pneumoniae NR-41920; assay: Minimum inhibitory concentration, broth microdilution; type: cell-based
Description: (§1) Bacterial cell lines and reagents. Escherichia coli ATCC 2452 (NDM-1, isolated in Pakistan) was New Delhi metallo-beta-lactamase (NDM-1) positive, blaNDM positive by PCR, and carbepenem-resistant (Imipenem and Ertapenem). Escherichia coli ATCC 2469 (1001728, isolated from human urine) was New Delhi metallo-beta-lactamase (NDM-1) positive, blaKPC negative and blaNDM positive by PCR, and Carbepenem-resistant (Imipenem and Ertapenem). Klebsiella pneumoniae (NR-41920, isolated in 2008 from human blood culture in Boston, Massachusetts, USA) was Carbapenem-resistant strain, blaKPC-3 positive by PCR, and resistant to amikacin, ampicillin/sulbactam, cefazolin, cefepime, ceftazidime, ceftriaxone, cefuroxime, ciprofloxacin, gentamicin, meropenem, piperacillin/tazobactam, tobramicin and trimethoprim/sulfamethoxazole. Pseudomonas aeruginosa (NR-50573, isolated in early 1970s from the blood of a burn patient at Mercy Hospital in Pittsburgh, Pennsylvania, USA) was resistant to rifampicin and susceptible to meropenem, ofloxacin, ceftazidime, amikacin, and tobramycin. 0.5 McFarland standard was purchased from ThermoFisher scientific (Waltham, MA, USA). Mueller-Hinton broth and tryptone soy agar plates were purchased from Becton, Dickinson and company (Franklin Lakes, New Jersey, USA).
(§2) Antimicrobial activities The minimum inhibitory concentrations (MICs) of the control antibiotics (gentamicin and imipenem), PMB, D-TZP and TZP against Escherichia coli, Klebsiella pneumoniae and Pseudomonas aeruginosa strains were determined by the broth microdilution method, according to guidelines outlined by the Clinical and Laboratory Standards Institute (CLSI)^18. The bacterial stains were grown aerobically overnight on tryptone soy agar plates at 37° C. Afterwards, a bacterial solution equivalent to 0.5 McFarland standard was prepared and diluted in cation-adjusted Mueller-Hinton broth (CAMHB) to achieve a bacterial concentration of ˜5×10^5 CFU/mL. The treatments were added in the first row of the 96-well plates and serially diluted with media containing bacteria. Plates were incubated aerobically at 37° C. for 16-18 hours.

[3] = tested on: Pseudomonas aeruginosa NR-50573; assay: as above; type: cell-based
Description: as §1, §2

[4] = tested on: Escherichia coli ATCC 2452; assay: as above; type: cell-based
Description: as §1, §2

[5] = tested on: Escherichia coli ATCC 2469; assay: as above; type: cell-based
Description: as §1, §2

J774a.1 macrophages = assay: Effect on cell membrane, confocal microscopy with wheat germ agglutinin; type: cell-based; conditions: eq. to 150 μg/mL PMB, 12 h
Protocol: Effect of PMB and D-TZP on cell membrane. The effect of D-TZP on J774A.1 cell membrane was monitored by two methods (scanning electron microscopy and confocal microscopy). For scanning electron microscopy, J774A.1 macrophages were plated in a 6-well plate at a density of 3×10^5 cells per well with 3 mL of complete medium. After overnight incubation at 37° C. in a 5% CO2 atmosphere, the cells were treated with either free PMB or D-TZP at a concentration equivalent to 150 μg/mL PMB for 12 h. The cells were centrifuged at 233 relative centrifugal force (rcf) for 3 min. The medium was removed, and 2.5% glutaraldehyde solution was added for fixation overnight at 4° C. The cells were then rinsed three times with water (5 min each) and incubated in 2% Osmium tetroxide for 1 h. After rinsing another three times with water (5 min each), the cells were dehydrated with a series of ethanol gradients (50%, 75%, 95%) for 10 minutes at each step. The dehydrated cells were rinsed with 100% ethanol three times for 10 minutes each time, stored in a 1:1 mixture of HMDS and ethanol in 1:1 for 30 min, and rinsed with 100% HMDS for 30 min twice. After overnight drying, the cells were placed on a carbon tape attached to an aluminum stud and coated with platinum for SEM analysis. The morphology of treated J774a.1 cells then was observed by a FEI NOVA NanoSEM scanning electron microscope (SEM). […]

[6] = tested on: Klebsiella pneumoniae NR-41920; assay: Effect on bacterial membrane (SEM); type: cell-based; conditions: 5×MIC for 1.5 h
Protocol: Effect on bacterial membrane. […] The bacteria were collected by centrifugation at 5000 rcf for 10 min, fixed in 2.5% glutaraldehyde solution at 4° C., and placed on poly-1-lysine coated coverslip. After 1 h, the coverslip was rinsed three times with water (5 min each) and incubated in 2% Osmium tetroxide for 30 min. SEM imaging was performed as described in previous section.

Q: For polymyxin B [PMB], which “SEAP production, LPS pretreated for 1 h, supernatant added to cells” value [1] is on record?
A: significant reduction in SEAP production

Q: What about the “Minimum inhibitory concentration (MIC)” value [2] of the same substance?
A: 0.5 µg/mL

Q: What about the “Minimum inhibitory concentration (MIC)” value [3] of the same substance?
A: 0.5 µg/mL

Q: What about the “Minimum inhibitory concentration (MIC)” value [4] of the same substance?
A: 0.5 µg/mL

Q: What about the “Minimum inhibitory concentration (MIC)” value [5] of the same substance?
A: 0.125 µg/mL

Q: And the “cell membrane staining with wheat germ agglutinin” value (J774a.1 macrophages)?
A: significant membrane damage

Q: What about the “bacterial membrane morphology by SEM” value [6] of the same substance?
A: induced deformation of bacterial membrane
